According to ChEMBL document CHEMBL1135258, “Substrate spectrum of tyrocidine thioesterase probed with randomized peptide N-acetylcysteamine thioesters” (Bioorg Med Chem Lett, 2002):
Where a SMILES comes first, the peptide text is derived from it. [ ]: non-standard residue; d: D form. The star is where a group is joined. SCH2CH2NHAc = CC(=O)NCCS*; Orn = NCCC[C@H](N)C(=O)O

Columns and labels:
[1] = molecular target: T1, Thioesterase GrsT homolog tycF (Brevibacillus brevis) (UniProt O30412); assay: Apparent kinetic constant (Kcat) for tyrocidine thioesterase amplified from Bacillus brevis (ATCC8185)
T1 sequence (whole entry): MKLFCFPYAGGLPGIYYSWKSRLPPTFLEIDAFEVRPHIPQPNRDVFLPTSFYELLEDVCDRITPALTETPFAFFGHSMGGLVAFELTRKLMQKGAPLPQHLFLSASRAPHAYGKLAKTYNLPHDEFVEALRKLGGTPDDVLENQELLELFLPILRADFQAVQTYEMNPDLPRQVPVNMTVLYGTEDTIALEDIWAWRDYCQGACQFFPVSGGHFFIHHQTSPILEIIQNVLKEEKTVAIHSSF

[2] = molecular target: T1, Thioesterase GrsT homolog tycF (Brevibacillus brevis); assay: Catalytic efficiency (Kcat/Km) was determined; design: unit not given here

k cat [1]	Ratio [2]	SMILES
0.133 s⁻¹	0.36	CC(=O)NCCSC(=O)[C@H](CC(C)C)NC(=O)[C@H](CCCN)NC(=O)[C@@H](NC(=O)[C@H](Cc1ccc(O)cc1)NC(=O)[C@H](CCC(N)=O)NC(=O)[C@H](CC(N)=O)NC(=O)CNC(=O)[C@H](Cc1ccccc1)NC(=O)[C@@H]1CCCN1C(=O)[C@H](N)Cc1ccccc1)C(C)C
0.233 s⁻¹	0.058	CC(=O)NCCSC(=O)[C@H](CC(C)C)NC(=O)[C@H](CCCN)NC(=O)[C@@H](NC(=O)[C@H](Cc1ccc(O)cc1)NC(=O)[C@H](CCC(N)=O)NC(=O)[C@H](CC(N)=O)NC(=O)[C@H](CC(=O)O)NC(=O)[C@H](Cc1ccccc1)NC(=O)[C@@H]1CCCN1C(=O)[C@H](N)Cc1ccccc1)C(C)C
0.233 s⁻¹	0.083	CC(=O)NCCSC(=O)[C@H](CC(C)C)NC(=O)[C@H](CCCN)NC(=O)[C@@H](NC(=O)[C@H](Cc1ccc(O)cc1)NC(=O)[C@H](CCC(N)=O)NC(=O)[C@H](CC(N)=O)NC(=O)[C@@H](Cc1ccccc1)NC(=O)[C@H](CC(N)=O)NC(=O)[C@@H]1CCCN1C(=O)[C@H](N)Cc1ccccc1)C(C)C
0.233 s⁻¹	0.92	CC(=O)NCCSC(=O)[C@H](CC(C)C)NC(=O)[C@H](CCCN)NC(=O)[C@@H](NC(=O)[C@H](Cc1ccc(O)cc1)NC(=O)[C@H](CCC(N)=O)NC(=O)[C@H](CC(N)=O)NC(=O)[C@H](CCCCN)NC(=O)[C@H](Cc1ccccc1)NC(=O)[C@@H]1CCCN1C(=O)[C@H](N)Cc1ccccc1)C(C)C
0.12 s⁻¹	0.95	CC(=O)NCCSC(=O)[C@H](CC(C)C)NC(=O)[C@H](CCCN)NC(=O)[C@@H](NC(=O)[C@H](Cc1ccc(O)cc1)NC(=O)[C@H](CCC(N)=O)NC(=O)[C@H](CC(N)=O)NC(=O)[C@H](Cc1c[nH]c2ccccc12)NC(=O)[C@H](Cc1ccccc1)NC(=O)[C@@H]1CCCN1C(=O)[C@H](N)Cc1ccccc1)C(C)C
0.138 s⁻¹	0.28	CC(=O)NCCSC(=O)[C@H](CC(C)C)NC(=O)[C@H](CCCN)NC(=O)[C@@H](NC(=O)[C@H](Cc1ccc(O)cc1)NC(=O)[C@H](CCC(N)=O)NC(=O)[C@H](CC(N)=O)NC(=O)[C@H](CC(C)C)NC(=O)[C@H](Cc1ccccc1)NC(=O)[C@@H]1CCCN1C(=O)[C@H](N)Cc1ccccc1)C(C)C
0.117 s⁻¹	0.43	CC(=O)NCCSC(=O)[C@H](CC(C)C)NC(=O)[C@H](CCCN)NC(=O)[C@@H](NC(=O)[C@H](Cc1ccc(O)cc1)NC(=O)[C@H](CCC(N)=O)NC(=O)[C@H](CC(N)=O)NC(=O)[C@H](CCC(N)=O)NC(=O)[C@H](Cc1ccccc1)NC(=O)[C@@H]1CCCN1C(=O)[C@H](N)Cc1ccccc1)C(C)C
0.2 s⁻¹	0.15	CC(=O)NCCSC(=O)[C@H](CC(C)C)NC(=O)[C@H](CCCN)NC(=O)[C@@H](NC(=O)[C@H](Cc1ccc(O)cc1)NC(=O)[C@H](CCC(N)=O)NC(=O)[C@H](CC(N)=O)NC(=O)[C@H](Cc1c[nH]cn1)NC(=O)[C@H](Cc1ccccc1)NC(=O)[C@@H]1CCCN1C(=O)[C@H](N)Cc1ccccc1)C(C)C
0.183 s⁻¹	0.17	CC(=O)NCCSC(=O)[C@H](CC(C)C)NC(=O)[C@H](CCCN)NC(=O)[C@@H](NC(=O)[C@H](Cc1ccc(O)cc1)NC(=O)[C@H](CCC(N)=O)NC(=O)[C@H](CC(N)=O)NC(=O)[C@H](Cc1ccc(O)cc1)NC(=O)[C@H](Cc1ccccc1)NC(=O)[C@@H]1CCCN1C(=O)[C@H](N)Cc1ccccc1)C(C)C
0.55 s⁻¹	2.65	CC(=O)NCCSC(=O)[C@H](CC(C)C)NC(=O)[C@H](CCCN)NC(=O)[C@@H](NC(=O)[C@H](Cc1ccc(O)cc1)NC(=O)[C@H](CCC(N)=O)NC(=O)[C@H](CC(N)=O)NC(=O)[C@@H](Cc1ccccc1)NC(=O)[C@H](Cc1ccccc1)NC(=O)[C@@H]1CCCN1C(=O)[C@H](N)Cc1ccccc1)C(C)C (stereo in doubt; form 2)
0.183 s⁻¹	0.6	CC(=O)NCCSC(=O)[C@H](CC(C)C)NC(=O)[C@H](CCCN)NC(=O)[C@@H](NC(=O)[C@H](Cc1ccc(O)cc1)NC(=O)[C@H](CCC(N)=O)NC(=O)[C@H](CC(N)=O)NC(=O)[C@H](C)NC(=O)[C@H](Cc1ccccc1)NC(=O)[C@@H]1CCCN1C(=O)[C@H](N)Cc1ccccc1)C(C)C
0.11 s⁻¹	0.25	CC(=O)NCCSC(=O)[C@H](CC(C)C)NC(=O)[C@H](CCCN)NC(=O)[C@@H](NC(=O)[C@H](Cc1ccc(O)cc1)NC(=O)[C@H](CCC(N)=O)NC(=O)[C@H](CC(N)=O)NC(=O)[C@H](CS)NC(=O)[C@H](Cc1ccccc1)NC(=O)[C@@H]1CCCN1C(=O)[C@H](N)Cc1ccccc1)C(C)C
0.13 s⁻¹	0.57	CC(=O)NCCSC(=O)[C@H](CC(C)C)NC(=O)[C@H](CCCN)NC(=O)[C@@H](NC(=O)[C@H](Cc1ccc(O)cc1)NC(=O)[C@H](CCC(N)=O)NC(=O)[C@H](CC(N)=O)NC(=O)[C@H](CO)NC(=O)[C@H](Cc1ccccc1)NC(=O)[C@@H]1CCCN1C(=O)[C@H](N)Cc1ccccc1)C(C)C
0.135 s⁻¹	0.26	CC(=O)NCCSC(=O)[C@H](CC(C)C)NC(=O)[C@H](CCCN)NC(=O)[C@@H](NC(=O)[C@H](Cc1ccc(O)cc1)NC(=O)[C@H](CCC(N)=O)NC(=O)[C@H](CC(N)=O)NC(=O)[C@@H](NC(=O)[C@H](Cc1ccccc1)NC(=O)[C@@H]1CCCN1C(=O)[C@H](N)Cc1ccccc1)[C@@H](C)O)C(C)C

Second part, the compound before the results:

SMILES	k cat [1]	Ratio [2]
CC(=O)NCCSC(=O)[C@H](CC(C)C)NC(=O)[C@H](CCCN)NC(=O)[C@@H](NC(=O)[C@H](Cc1ccc(O)cc1)NC(=O)[C@H](CCC(N)=O)NC(=O)[C@H](CC(N)=O)NC(=O)[C@@H](Cc1ccccc1)NC(=O)[C@H](Cc1ccccc1)NC(=O)[C@H](CC(N)=O)NC(=O)[C@H](N)Cc1ccccc1)C(C)C	0.117 s⁻¹	0.084
CC(=O)NCCSC(=O)[C@H](CC(C)C)NC(=O)[C@H](CCCN)NC(=O)[C@@H](NC(=O)[C@H](Cc1ccc(O)cc1)NC(=O)[C@H](CCC(N)=O)NC(=O)[C@H](CC(N)=O)NC(=O)[C@@H](Cc1ccccc1)NC(=O)[C@H](Cc1ccccc1)NC(=O)[C@H](C)NC(=O)[C@H](N)Cc1ccccc1)C(C)C (H-[dF]AF[dF]NQYV[Orn]L-SCH2CH2NHAc)	0.117 s⁻¹	0.23
CC(=O)NCCSC(=O)[C@H](CC(C)C)NC(=O)[C@H](CCCN)NC(=O)[C@@H](NC(=O)[C@H](Cc1ccc(O)cc1)NC(=O)[C@H](CCC(N)=O)NC(=O)[C@H](CC(N)=O)NC(=O)[C@H](CCCN=C(N)N)NC(=O)[C@H](Cc1ccccc1)NC(=O)[C@@H]1CCCN1C(=O)[C@H](N)Cc1ccccc1)C(C)C	0.2 s⁻¹	0.51
CC(=O)NCCSC(=O)[C@H](CC(C)C)NC(=O)[C@H](CCCN)NC(=O)[C@@H](NC(=O)[C@H](Cc1ccc(O)cc1)NC(=O)[C@H](CCC(N)=O)NC(=O)[C@H](CC(N)=O)NC(=O)[C@@H]1CCCN1C(=O)[C@H](Cc1ccccc1)NC(=O)[C@@H]1CCCN1C(=O)[C@H](N)Cc1ccccc1)C(C)C	0.25 s⁻¹	0.11
CC(=O)NCCSC(=O)[C@H](CC(C)C)NC(=O)[C@H](CCCN)NC(=O)[C@@H](NC(=O)[C@H](Cc1ccc(O)cc1)NC(=O)[C@H](CC(N)=O)NC(=O)[C@H](CC(N)=O)NC(=O)[C@@H](Cc1ccccc1)NC(=O)[C@H](Cc1ccccc1)NC(=O)[C@@H]1CCCN1C(=O)[C@H](N)Cc1ccccc1)C(C)C	1.33 s⁻¹	0.72
CC(=O)NCCSC(=O)[C@H](CC(C)C)NC(=O)[C@H](CCCN)NC(=O)[C@H](CC(N)=O)NC(=O)[C@H](Cc1ccc(O)cc1)NC(=O)[C@H](CCC(N)=O)NC(=O)[C@H](CC(N)=O)NC(=O)[C@@H](Cc1ccccc1)NC(=O)[C@H](Cc1ccccc1)NC(=O)[C@@H]1CCCN1C(=O)[C@H](N)Cc1ccccc1	0.2 s⁻¹	0.22
CC[C@H](C)[C@H](NC(=O)[C@H](Cc1ccccc1)NC(=O)[C@@H]1CCCN1C(=O)[C@H](N)Cc1ccccc1)C(=O)N[C@@H](CC(N)=O)C(=O)N[C@@H](CCC(N)=O)C(=O)N[C@@H](Cc1ccc(O)cc1)C(=O)N[C@H](C(=O)N[C@@H](CCCN)C(=O)N[C@@H](CC(C)C)C(=O)SCCNC(C)=O)C(C)C	0.183 s⁻¹	0.33
CC[C@@H](C)[C@H](NC(=O)[C@H](CC(N)=O)NC(=O)[C@@H](Cc1ccccc1)NC(=O)[C@H](Cc1ccccc1)NC(=O)[C@@H]1CCCN1C(=O)[C@H](N)Cc1ccccc1)C(=O)N[C@@H](Cc1ccc(O)cc1)C(=O)N[C@H](C(=O)N[C@@H](CCCN)C(=O)N[C@@H](CC(C)C)C(=O)SCCNC(C)=O)C(C)C	0.123 s⁻¹	0.09
CC(=O)NCCSC(=O)[C@H](CC(C)C)NC(=O)[C@H](CCCN)NC(=O)[C@@H](NC(=O)[C@H](CC(N)=O)NC(=O)[C@H](CCC(N)=O)NC(=O)[C@H](CC(N)=O)NC(=O)[C@@H](Cc1ccccc1)NC(=O)[C@H](Cc1ccccc1)NC(=O)[C@@H]1CCCN1C(=O)[C@H](N)Cc1ccccc1)C(C)C	0.333 s⁻¹	2.63
CC(=O)NCCSC(=O)[C@H](CC(C)C)NC(=O)[C@H](CCCN)NC(=O)[C@@H](NC(=O)[C@H](Cc1ccc(O)cc1)NC(=O)[C@H](CCC(N)=O)NC(=O)[C@H](CC(N)=O)NC(=O)[C@@H](Cc1ccccc1)NC(=O)[C@H](Cc1ccccc1)NC(=O)[C@H](CC(=O)O)NC(=O)[C@H](N)Cc1ccccc1)C(C)C	0.167 s⁻¹	0.11
CC(=O)NCCSC(=O)[C@H](CC(C)C)NC(=O)[C@H](CCCN)NC(=O)[C@@H](NC(=O)[C@H](Cc1ccc(O)cc1)NC(=O)[C@H](CCC(N)=O)NC(=O)[C@@H](NC(=O)[C@@H](Cc1ccccc1)NC(=O)[C@H](Cc1ccccc1)NC(=O)[C@@H]1CCCN1C(=O)[C@H](N)Cc1ccccc1)C(C)C)C(C)C	0.12 s⁻¹	0.29
CC(=O)NCCSC(=O)[C@H](CC(C)C)NC(=O)[C@H](CCCN)NC(=O)[C@H](CCCN=C(N)N)NC(=O)[C@H](Cc1ccc(O)cc1)NC(=O)[C@H](CCC(N)=O)NC(=O)[C@H](CC(N)=O)NC(=O)[C@@H](Cc1ccccc1)NC(=O)[C@H](Cc1ccccc1)NC(=O)[C@@H]1CCCN1C(=O)[C@H](N)Cc1ccccc1	0.15 s⁻¹	0.28
